Measured values reported in US11077151B2, “Ascaroside treatment of autoimmune and inflammatory diseases” (California Institute of Technology, priority 2016, dated 2021).

Assays:
[1] = test system: ovalbumin model of murine asthma (C57BL/6 mice); assay: Ovalbumin model of murine asthma; type: in vivo, mouse
Procedure: Adult C57BL/6 mice were sensitized by administering 2 ug OVA (Sigma-Aldrich) and 1 mg alum (Thermo) with 50 ng ascr #7 or saline, via intraperitoneal injection, on Day 0 and 14. On day 24, the mice were challenged with intranasal administration of saline containing 100 μg OVA, under isoflurane anesthesia. Histologic sections were stained with H&E or PAS to score for eosinophilia, goblet cell metaplasia, and airway hyper-reactivity. Mice were also placed in a computer controlled small animal ventilator (SCIREQ) to score for airway hyper-reactivity following methacholine challenge. […] Animals with asthma have higher resistance of flow, which would be represented as higher “RL” values in FIG. 3B. […] Lungs were collected, postmortem, and then sectioned and stained to show the presence of eosinophils and mucus. […] In FIG. 3C, the asthmatic mouse lung, here labeled “Control” has a large number of mucus and eosinophils that surround the bronchioles and occupy the alveolar space; wherein the thick barriers would prohibit oxygen from easily diffusing.

[2] = test system: IL-1β secretion, bone marrow-derived mouse dendritic cells; assay: IL-1β secretion by TNF-α stimulated bone marrow dendritic cells (ELISA); type: cell-based; conditions: different concentrations of ascr #7
Procedure: (§1) Bone marrow was extracted from femurs of C57BL/6 mice (6-12 weeks of age). These mice were euthanized by CO2 inhalation and their femurs were removed. After removing the remaining flesh from the bone, they were cut at the metaphysis. Bone marrow was flushed out using a syringe filled with RPMI. The extracted marrow was further broken down by resuspension with syringe. The mixture was centrifuged and the pellet was re-suspended in RPMI. […] 20 ng of GM-CSF was added to each well. At day 3, and every 3 days thereafter, the media was replaced. Cells were used for experiments between day 7-9.
(§2) Bone marrow dendritic cells were collected between day 7-9 of culture. Cells were washed twice and counted. Ascr #7 in water or RPMI were placed in corresponding wells, and are allowed to dry. 10^6 cells were then plated in each well in a 24 well culture plate. Cells were left to incubate with ascr #7 for 5 minutes. Following the brief incubation, different TNFα was added to the wells. These bone marrow dendritic cells were then cultured at 37° C. for 18-72 hours. Cells were collected via the pellet generated by centrifuge. The supernatant was also preserved. EBioscience ELISA kits was used to determine the concentration of different cytokines present in each well.

[3] = test system: T cell transfer model of colitis, Rag -/- mice; assay: T cell transfer model of colitis (IBD); type: in vivo, mouse; conditions: 300 ng ascr #7 i.p. every 3 days, day 14 to 28
Procedure: A T cell transfer model of colitis where 10^6CD4+ T cells were transferred to adult Rag −/− mice was used, and either saline or 300 ng ascr #7 were administered via intraperitoneal injection every 3 days between day 14 and day 28. On day 28, the mice were euthanized and colon analysis was performed. n=3 mice per group. […] The normal mouse colon is long, skinny, and has discrete fecal pellets. The diseased mouse colon, with IBD, has a shortened, dilated colon, with diarrhea instead of discrete fecal pellets.

[4] = test system: IL-6 secretion, bone marrow-derived mouse dendritic cells; assay: IL-6 secretion by TNF-α stimulated bone marrow dendritic cells (ELISA); type: cell-based; conditions: different concentrations of ascr #7
Procedure: as §1, §2

[5] = test system: NOD/ShiLtJ mouse model of Type 1 Diabetes; assay: NOD/ShiLtJ mouse model of Type 1 Diabetes; type: in vivo; conditions: 100 ng ascr #7 i.p. three times a week
Procedure: The NOD/ShiLtJ (Jackson Laboratories) mouse model of Type 1 Diabetes was used These mice typically develop hyperglycemia around 17-18 weeks of life. Either saline or 100 ng ascr #7 was administered three times a week via intraperitoneal injection. Blood glucose levels were determined in the same mouse over time, via the collected of tail vein blood (as shown in FIG. 4A) at multiple time points. […] 8 mice were injected with saline and 8 mice were injected with ascr #7, as described above.

IL-6 receptor = target: T1, IL-6 receptor (Homo sapiens, UniProt P08887); conditions: cited from earlier work
T1 construct: host or cells: human patients (endogenous receptor)
T1 sequence (P08887 20-468): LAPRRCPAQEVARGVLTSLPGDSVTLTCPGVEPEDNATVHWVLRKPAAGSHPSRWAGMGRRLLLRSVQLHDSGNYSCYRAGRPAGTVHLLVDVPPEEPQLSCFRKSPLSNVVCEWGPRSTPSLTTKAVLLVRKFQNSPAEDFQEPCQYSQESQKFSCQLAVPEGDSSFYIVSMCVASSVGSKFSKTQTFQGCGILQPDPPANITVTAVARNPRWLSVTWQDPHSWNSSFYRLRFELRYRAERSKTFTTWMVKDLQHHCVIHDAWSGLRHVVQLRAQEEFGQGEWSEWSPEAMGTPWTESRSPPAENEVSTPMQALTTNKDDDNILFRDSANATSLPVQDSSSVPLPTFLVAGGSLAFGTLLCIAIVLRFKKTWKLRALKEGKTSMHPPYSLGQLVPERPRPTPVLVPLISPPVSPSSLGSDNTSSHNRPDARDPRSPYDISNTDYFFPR

[6] = ovalbumin model, 50 ng ascr #7 i.p.

Question: Which results are given for `C[C@H](CC/C=C/C(=O)O)O[C@@H]1O[C@@H](C)[C@H](O)C[C@H]1O` [ascr #7]?
Answer: lung histology (boundaries between bronchioles and alveolar space; eosinophils and mucus) ([1]; 50 ng ascr #7 i.p. Day 0 and 14, stained lung sections, FIG. 3C): thin boundaries between the bronchioles and the alveolar space, comparable to the normal mice; resistance of air flow (RL) ([1]; 50 ng ascr #7 i.p. Day 0 and 14 with OVA/alum, methacholine challenge, FIG. 3B): low resistance of air flow, with comparable levels to normal mice; development of airway hyper-reactivity [1, 6]: reduces; development of eosinophilia [1, 6]: reduces; development of goblet cell metaplasia [1, 6]: reduces; IL-1β level ([2]; dendritic cells not stimulated with TNF-α, FIG. 2 left): very low levels of IL-1β; secreted IL-1β level ([2]; dendritic cells stimulated with TNF-α, FIG. 2 right): reduces these levels significantly; development of abnormal lumen dilation [3]: markedly reduces; development of colon shortening [3]: markedly reduces; development of diarrhea [3]: markedly reduces; colon appearance on day 28 ([3]; FIG. 5): normal appearing colon, which is long, skinny, and contains discrete fecal pellets; IL-6 level ([4]; dendritic cells not stimulated with TNF-α, FIG. 1 left): very low levels of IL-6; secreted IL-6 level ([4]; dendritic cells stimulated with TNF-α, FIG. 1 right): reduces these levels significantly; blood glucose levels, individual mice ([5]; throughout 18 weeks, FIG. 4B): significantly reduced blood glucose levels; blood glucose levels, group average vs untreated group ([5]; week 18, FIG. 4C): significantly lower blood glucose levels; conversion to hyperglycemia ([5]; NOD mice): delays conversion to hyperglycemia

Question: Which results are given for “Tocilizumab: a humanized anti-IL-6 receptor antibody”?
Answer: clinical activity of atopic dermatitis (IL-6 receptor; 3 patients with severe atopic dermatitis, Navarini et al. 2011): decreased clinical activity; relapse rates, neuropathic pain and general fatigue, neuromyelitis optica (IL-6 receptor; after one year of treatment, Araki et al. 2014): decreased; manifestations of eosinophilic fasciitis (IL-6 receptor; at 6 months, Espinoza et al. 2015): remission of both articular and cutaneous manifestations; disease remission, severe multisystemic microscopic polyangiitis (IL-6 receptor; one patient, Berti et al. 2015): complete and sustained disease remission; treatment of uveitis (IL-6 receptor; patients, Mesquida et al. 2014): effective; inflammatory response and quality of life measures, Cogan's syndrome (IL-6 receptor; person, relapsed after prednisone, Shibuya et al. 2013): successfully improved
